Read-outs that look alike come from different tables or passages of the source.
What was measured:
[1] = Formaldehyde content or release; type: physicochemical
WBC's = assay: WBC fixation (cells do not disintegrate or clump after removal of compound); type: cell-based; conditions: 6% w/v solution, 24 hours, 22° C
Procedure: (§1) A 6% w/v solution of each compound was used and samples tested at 24 hours (22° C). […] Relative RBC fixation was detected by adding known RBC lysing agent. […] Fixing is relative and depends on how long you want cells or tissues to remain fixed.

RBC's = assay: Relative RBC fixation detected by adding RBC lysing agent; type: cell-based; conditions: 6% w/v solution, 24 hours, 22° C
Procedure: as §1

6C3HED lymphosarcoma = assay: Tumor immunization with fixed ascites cells and challenge with viable cells; type: in vivo, C3H mice; conditions: cells fixed in 3% agent; two immunizations; challenge 100,000 viable cells i.p.; ">65" is given as "No deaths at 65 days"
Procedure: (§2) Tumor Immunization. 6C3HED lymphosarcoma was grown in C3H mice as ascites (ascites cause collection of fluid in the peritoneal cavity). The ascites cells were then washed in phosphate buffered saline (PBS) containing 3% IDU, 3% Glydant, or 3% Dimethylol urea. The cells were then placed at 6° C. for 48 hours.
As a control for immunization, cells were also washed into PBS containing 3% para formaldehyde and held under the same conditions. After 48 hours, all the cell groups were washed into PBS to remove the fixatives. The cell count was adjusted to 200,000/ml. Five C3H mice were injected with each of the cell groups for the first immunization. The procedure was repeated two weeks later.
The immunized mice were challenged with 100,000 viable 63HED ascites cells by intraperitoneal injection. The efficacy of the immunization was determined by the average death time for each group of mice.

albumin = conditions: 24 hours incubation
Procedure: Formaldehyde cross-links with itself and proteins to obscure the antigen. To determine if this is true, diazolidinyl urea was added to the protein, albumin.

[2] = Toxicity studies comparing diazolidinyl urea with formaldehyde; type: in vivo; conditions: for LD50: route and species not given
From the text: Unlike the typical histological fixing agents, the active agents of the invention have extremely low toxicity. For example, toxicity studies comparing diazolidinyl urea of the invention with formaldehyde of the prior art show the following: […]

[3] = test system: 6C3HED lymphosarcoma ascites cells; assay: Vital staining of ascites cells held in fixative 48 hours; type: cell-based, C3H mice; conditions: 3% in PBS, 6° C.
Procedure: as §2

human white blood cells = assay: Stabilization of white blood cells for flow cytometry (leukocyte positive control); type: cell-based
From the text: Leukocyte Positive Control Check for Antigen-Antibody Studies. Positive control methods are needed to verify the performance of reagents, preparation methods, staining procedures as well as the performance of the flow cytometer instrumentation itself. This requires a preparation of human white blood cells, preferably with a mixed distribution of leukocytes (lymphocytes, monocytes, and granulocytes), to evaluate the performance of the procedure before it is used to evaluate subject tissues, cells, or cell components. While much of the methodology used in this procedure is familiar to those skilled in the art, this invention is novel in its use of imidazolidinyl urea (IDU) as a cell stabilizer, the use of polyethylene glycol to reduce damage to the white blood cells during processing, the use of PMSF to inhibit protease activity, and the process itself.
The invention discloses a new method of producing a positive control check material with significant advances over the prior art. Production is begun by placing one pack of human white blood cells, obtainable from commercial blood banks, in each bottle of the centrifuge. Samples from each pack are placed into a plastic tube for screening on the flow cytometer. Because of the considerable variation from donor to donor in cluster designation antigen sites, only packs with similar properties are pooled. Each product pool should be limited to a particular ABO blood type to prevent clumping as a result of a histoin-compatibility reaction between the cells. The samples are placed into plastic tubes rather than glass because unfixed white blood cells may be activated by the glass causing them to adhere to the glass and each other.
The cells are prefixed 1:1 with 1% IDU in phosphate buffered saline ethylenediaminetetraacetic acid (PBS-EDTA) at 6° C. for one hour. […] The cells and all diluents used in the processing must be kept at 6° C. at all times by use of refrigeration and a chiller bath to reduce the amount of cell damage which alters the scattergram.
The bottle are next centrifuged at 900 rpm for 10 minutes, and the supernatant is removed. This angular velocity is sufficient to pellet the white blood cells without damaging them. Ammonium chloride tris, 200 ml/bottle set at 6° C. for 20-30 minutes, is then used to lyse the red blood cells.
A second centrifugation follows, again at 900 rpm for 10 minutes, and the supernatant is removed. Next 250 ml/bottle of ammonium chloride tris are added at 6° C. or 45-60 minutes, with 60 minutes usually ensuring complete lysis of the red blood cells.
The material is then centrifuged a third time at 900 rpm for 10 minutes and then the supernatant is removed. […]

tetanus toxin = type: in vivo, Swiss mice
[4] = solution (Glydant), as such (Suttocide)

Question: For `O=[N+]([O-])C(Br)(CO)CO` [Bronopol, 2-bromo-2-nitropropane-1,3-diol], which Formaldehyde release [1] is on record?
Answer: Its Formaldehyde release is “Decomposition liberates formaldehyde”.

Question: What about the “Fixation of WBC's” value (WBC's) of the same compound?
Answer: Its value is “Fixes both RBC's and WBC's”.

Question: What about the “Fixation of RBC's” value (RBC's) of the same compound?
Answer: The value was “Fixes both RBC's and WBC's”.

Question: For `O=C(NCO)NCO` [Dimethylol urea, dimethylol urea], which “Average Death Days” value (6C3HED lymphosarcoma) is on record?
Answer: The value was > 65 days.

Question: Which “Disc-gel electrophoresis result with albumin” value (albumin) does the source give for `C=O` [Formaldehyde, formaldehyde, reference compound] here?
Answer: The value was “a large number of multimers and insoluble proteins result”.

Question: What about the “Dermal Toxicity” value ([2]; in vivo) of the same compound?
Answer: Its value is 270 mg/kg.

Question: What about the “Inhalation Toxicity” value ([2]; in vivo) of the same compound?
Answer: Its value is 500 mg/kg.

Question: What about the LD50 ([2]; in vivo, read-out: LD50) of the same compound?
Answer: The LD50 was 800 mg/kg.

Question: Which “Average Death Days” value (6C3HED lymphosarcoma) does the source give for `CC1(C)C(=O)N(CO)C(=O)N1CO` [Glydant, Dimethylol-5,5-dimethylhydantoin] here?
Answer: Its value is > 65 days.

Question: And the “Viability by vital staining” value [3]?
Answer: Its value is “none of the cells were viable”.

Question: And the Formaldehyde content [1, 4]?
Answer: Its Formaldehyde content is 2.1%.

Question: And the “Fixation of WBC's” value (WBC's)?
Answer: The value was “Fixes both RBC's and WBC's”.

Question: What about the “Fixation of RBC's” value (RBC's) of the same compound?
Answer: Its value is “Fixes both RBC's and WBC's”.

Question: With `O=C(O)CNCO` [Suttocide, Sodium hydroxymethyl glycinate] as the compound, how does the Formaldehyde content [1, 4] read?
Answer: The Formaldehyde content was 1%.

Question: What about the “Fixation of WBC's” value (WBC's) of the same compound?
Answer: The value was “Fixes RBC's and WBC's”.

Question: What about the “Fixation of RBC's” value (RBC's) of the same compound?
Answer: The value was “Fixes RBC's and WBC's”.

Question: What does the source list for diazolidinyl urea?
Answer: Disc-gel electrophoresis result with albumin (albumin): no change in the rate of migration of the protein; Formaldehyde content [1]: 1-2 ppm; Fixation of WBC's (WBC's): Fixes both RBC's and WBC's; Fixation of RBC's (RBC's): Fixes both RBC's and WBC's; Dermal Toxicity ([2]; in vivo): 2000 mg/kg; Inhalation Toxicity ([2]; in vivo): None; LD50 [2]: 2570 mg/kg

Question: What does the source list for imidazolidinyl urea?
Answer: Effect on white blood cells, prefixation (human white blood cells; 1% IDU in PBS-EDTA, 1:1, 6° C., one hour): stabilize the white blood cells without interfering with the lysis of the red blood cells; Effect on cells, fixation (human white blood cells; 3% IDU, 6° C., 2 days): stabilizes the cells for use on the flow cytometer; Effect on cells, fixation at higher concentrations (human white blood cells; IDU concentrations higher than 3%): causing cells to lose the cluster designation marker and produce scatterplot changes; Effect on cells, fixation at lower concentrations (human white blood cells; IDU concentrations lower than 3%): reducing stability; Average Death Days (6C3HED lymphosarcoma): > 65 days; Viability by vital staining [3]: none of the cells were viable; percent increase in antibody titer over formalin, 14 Days (tetanus toxin; 14 days): 200%; percent increase in antibody titer over formalin, 28 Days (tetanus toxin; 28 days): 560%; Formaldehyde release [1]: Decomposition releases formaldehyde; Fixation of WBC's (WBC's): Fixes both RBC's and WBC's; Fixation of RBC's (RBC's): Fixes both RBC's and WBC's

Question: Which “Average Death Days” value (6C3HED lymphosarcoma) does the source give for “para formaldehyde [Control, reference compound]” here?
Answer: The value was 10 days.
